Assay results reported in ChEMBL document CHEMBL3886244, “Benzoxazole- and tetrahydrobenzoxazole-substituted pyridazinones as GPR119 agonists” (2014).
pEC50: −log10 of the molar value.

Target: T1, Glucose-dependent insulinotropic receptor (Homo sapiens, UniProt Q8TDV5)
T1 sequence (Q8TDV5 whole entry): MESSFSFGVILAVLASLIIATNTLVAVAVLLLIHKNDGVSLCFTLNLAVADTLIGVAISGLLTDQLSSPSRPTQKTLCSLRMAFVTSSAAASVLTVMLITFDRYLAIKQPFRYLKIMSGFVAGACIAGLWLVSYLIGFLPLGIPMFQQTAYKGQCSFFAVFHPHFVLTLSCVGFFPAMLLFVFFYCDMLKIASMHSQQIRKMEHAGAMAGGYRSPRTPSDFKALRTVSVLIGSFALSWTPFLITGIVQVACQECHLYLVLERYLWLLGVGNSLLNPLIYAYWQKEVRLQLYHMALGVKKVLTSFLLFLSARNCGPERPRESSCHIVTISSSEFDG
Assay: AlphaScreen cAMP Assay: MIN6 cells [Miyazaki J et al. Endocrinology. 1990 July; 127(1):126-32] were stably transfected with an expression vector for human GPR119 cDNA (Acc. No. NP-848566). Min-6/hGPR119 cells are cultured in DMEM, 10% FBS, 50 uM beta-mercaptoethanol, 0.3 mg/mL Geniticin, 2 mM GlutaMAX at 37 C. 5% CO2. For the assay, the cells are placed in Optiplates (white, 384-well, 160W-barcoded, TC, sterile with lid, Cat. No. #6007688 (Perkin Elmer); 10000 cells/well; 50 ul). The plates covered with lids are then incubated for 24 hours at 37 C./5% CO2.After the medium has been sucked out of the wells completely, 10 ul of the test compound are added, the compounds are diluted beforehand with stimulating buffer (140 mM NaCl, 3.6 mM KCl, 0.5 mM NaH2PO4, 0.5 mM MgSO4, 1.5 mM CaCl2, 10 mM Hepes, 5 mM NaHCO3; pH 7.4. 0.5 mM IBMX and 0.1% BSA, the final DMSO concentration is 1%). After 45 minutes' incubation at RT, the cAMP concentrations are determined using the AlphaScreen cAMP Assay.
Assay type: functional, cell-based

Row | pEC50 | SMILES
1 | < 5.00 | CC[C@H]1CC(=O)NN=C1c1ccc2nc(-c3ccccc3)oc2c1
2 | 6.57 | CC1CC(=O)NN=C1c1ccc2nc(-c3ccsc3)oc2c1 (stereo not drawn)
3 | 6.94 | CCOc1ccc(-c2nc3ccc(C4=NNC(=O)CC4CC)cc3o2)cc1 (stereo not drawn)
